The text below walks through data of patent publication US20200000742A1, “COMBINATION” (priority 2016, published 2020).

This test deals with log phase NDM-1 Klebsiella Pneumoniae (NCTC13443). Nature of the test: Time-kill method over 24 hours (CFU counts). The test is classed as cell-based. The following applies: FIG. 1. As for the experimental part: As described hereinabove, time-kill methods are another accepted test for ascertaining the presence or absence of synergy, and involve comparing the dynamic effect of a drug combination with each drug alone when assessing the effect on bacterial log or stationary-growth over time.
• 1. Bacterial strain used: NCTC13443 strain of Klebsiella Pneumoniae • 2. Growth of bacteria: Log phase growth of NCTC13443 was carried out according to known methods in the art, e.g. SOP R-005-00 Log Phase Growth of Bacteria. • 3. Compound preparation: dichlorophen and meropenem trihydrate were both obtained from commercial sources (e.g. Sigma-Aldrich® UK). • 4. The overnight culture was diluted with nutrient broth (Oxoid) to 10^7 CFU/ml and 280 μl and 290 μl of the culture was added to each combination well and drug respectively, to make the final concentration of 300 μl. • 5. Incubation of the compounds with the bacterial suspension was carried out for 24 hours. At 0, 2, 4, 7 and 24 hours, CFU counts were performed to measure the kill effects of the drug combination.

Turning to `Oc1ccc(Cl)cc1Cc1cc(Cl)ccc1O` [dichlorophen, 4-chloro-2-[(5-chloro-2-hydroxyphenyl)methyl] phenol], the “effect against log phase NDM-1 Klebsiella Pneumoniae (time-kill)” value (used alone at 64 mg/L) is “little or no effect”.

Consider `C[C@@H](O)[C@H]1C(=O)N2C(C(=O)O)=C(S[C@@H]3CN[C@H](C(=O)N(C)C)C3)[C@H](C)[C@H]12` [meropenem trihydrate], for which, under “used alone at 512 mg/L”, the “effect against log phase NDM-1 Klebsiella Pneumoniae (time-kill)” value is on record as “little or no effect”.
